Test system: SARS-CoV-2
Assay: Virucidal efficacy: 30sec incubation of SARS-CoV-2 with mouth rinsing solution, then standard plaque assay on Vero E6 cells
Type: cell-based, Severe acute respiratory syndrome coronavirus 2
Details: 1x10^6 pfu SARS-CoV-2 incubated with solution (2-fold diluted) for 30sec at 37°C; Dilution 4 analyzed on Vero E6; compared to negative control
Method: A mouth rinsing solution according to the invention (see example 1 below) and some of their individual active components were tested regarding their virucidal efficacy against the novel coronavirus SARS-CoV-2, in vitro. To evaluate if this procedure is sufficient to successfully inactivate SARS-CoV-2, in the following study 1x10^6 infectious SARS-CoV-2 particles were incubated with the solutions (dilution factor: 2) for 30sec. After a serial dilution the samples were submitted to a standard plaque assay to check for the presence of infectious virus particles post incubation with the different solutions.
Test solutions: • Example 1 (0.1% Chlorhexidine (CHX), 0.05% CPC, PEG-40 hydrogenated castor oil), according to the invention Comparative examples: • 0.1% CHX plus 0.05% CPC • 0.05% CPC • 0.1% CHX • 1.5% H2O2 • 0.5% H2O2 […]
The samples were mixed briefly by vortexing and incubated at 37°C for 30sec. […] Dilution 4 of each sample was analyzed in technical duplicates in a plaque assay. […]
The virucidal activity of example 1 and some of their individual components were investigated against the novel corona virus SARS-CoV-2 by a 30sec incubation of 1x10^6 pfu SARS-CoV-2 with the test substances, followed by a standard plaque assay. […] Medium", positive control, in column 3, each analyzed in technical duplicates.

Structure (SMILES)	infectious SARS-CoV-2 particles / number of plaques in the plaque assay
OO [1.5% H2O2, Hydrogen peroxide]	no reduction compared to the negative control
[H]/N=C(\N/C(=N/[H])NCCCCCCNC(=N)NC(=N)Nc1ccc(Cl)cc1)Nc1ccc(Cl)cc1 [0.1% CHX, Chlorhexidine]	no reduction compared to the negative control

— patent publication EP3964196A1, “USE OF CHL[…] CETYLPYRIDINIUM CHLORIDE AS ANTIVIRAL AGENTS” (Ferton Holding S.A., priority 2020, dated 2022)
